Our source for the metabolised, IC50 and Stability values is ChEMBL document CHEMBL2407060, “1,1-Dioxo-5,6-dihydro-[4,1,2]oxathiazines, a novel class of 11ß-HSD1 inhibitors for the treatment of diabetes” (Bioorg Med Chem Lett, 2013).

Series [1] in a line: Drug metabolism in mouse liver microsomes after 20 mins. The format is ADME, Microsome. The following applies: read-out: Drug metabolism.
Series [2] can be described thus: Drug metabolism in human liver microsomes after 20 mins. The class given is ADME, Microsome. Conditions: read-out: Drug metabolism. (In general: Liver microsomes are vesicles of endoplasmic reticulum, rich in cytochrome P450 enzymes.)
Series [3] concerns the target 11-beta-hydroxysteroid dehydrogenase 1 (Mus musculus, UniProt P50172). The experiment in a line: Inhibition of mouse 11beta-HSD1.
Series [4] in a line: Chemical stability of the compound under neutral condition. The format is physicochemical.
Series [5] in a line: Metabolic stability in plasma (unknown origin) assessed as compound degradation. The format is ADME, cell-free.
A short description of series [6]: Chemical stability of the compound under acidic condition. The class given is physicochemical.
The target in series [7] is 11-beta-hydroxysteroid dehydrogenase 1 (Rattus norvegicus, UniProt P16232). The experiment in a line: Inhibition of rat 11beta-HSD1.
Sequence of 11-beta-hydroxysteroid dehydrogenase 1 (Rattus norvegicus, UniProt P16232) (P16232 whole entry): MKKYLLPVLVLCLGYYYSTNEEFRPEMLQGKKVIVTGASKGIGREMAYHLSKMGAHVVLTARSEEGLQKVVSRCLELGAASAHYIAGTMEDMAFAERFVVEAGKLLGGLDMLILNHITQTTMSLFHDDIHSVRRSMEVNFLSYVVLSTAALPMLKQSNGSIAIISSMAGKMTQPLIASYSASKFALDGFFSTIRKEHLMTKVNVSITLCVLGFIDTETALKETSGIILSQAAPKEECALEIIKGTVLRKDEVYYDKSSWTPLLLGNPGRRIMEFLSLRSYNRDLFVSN
Series [8] concerns the target 11-beta-hydroxysteroid dehydrogenase 1 (Homo sapiens, UniProt P28845). As to the kind of experiment: Inhibition of human 11beta-HSD1.

Sequence of 11-beta-hydroxysteroid dehydrogenase 1 (Homo sapiens, UniProt P28845) (P28845 whole entry): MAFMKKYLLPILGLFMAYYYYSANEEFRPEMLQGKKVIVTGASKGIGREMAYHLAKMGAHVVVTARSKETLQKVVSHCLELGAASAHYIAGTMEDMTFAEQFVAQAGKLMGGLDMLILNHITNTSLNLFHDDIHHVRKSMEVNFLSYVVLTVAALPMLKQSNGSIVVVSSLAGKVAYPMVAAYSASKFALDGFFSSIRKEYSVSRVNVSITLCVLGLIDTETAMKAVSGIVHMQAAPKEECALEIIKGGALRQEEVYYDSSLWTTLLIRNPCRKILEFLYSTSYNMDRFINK
Sequence of 11-beta-hydroxysteroid dehydrogenase 1 (Mus musculus, UniProt P50172) (P50172 whole entry): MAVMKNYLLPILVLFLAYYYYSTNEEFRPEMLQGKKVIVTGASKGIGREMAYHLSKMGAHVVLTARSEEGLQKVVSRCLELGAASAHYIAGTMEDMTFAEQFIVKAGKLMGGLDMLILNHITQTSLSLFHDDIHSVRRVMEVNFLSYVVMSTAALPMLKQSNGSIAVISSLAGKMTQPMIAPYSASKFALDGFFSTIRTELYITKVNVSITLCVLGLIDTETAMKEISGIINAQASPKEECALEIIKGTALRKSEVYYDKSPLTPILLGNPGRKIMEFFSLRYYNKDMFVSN

Turning to `O=S1(=O)N=C(N[C@@H](CCCO)c2ccccc2)O[C@H]2CCCC[C@H]21`, the results for the metabolised at 20 min in series [1] and in series [2] were 78% and 89%, respectively. This compound also registered a half-inhibitory concentration (IC50) in series [3] of 294 nM.

Regarding `CC1(C)OC(NC2CCCCC2)=NS(=O)(=O)C1(C)C`, the metabolised at 20 min came out at 9% in series [1] and 5% in series [2]. Half-maximal inhibition in series [3] (IC50) required 865 nM.

`CC1(C)OC(NC2CCCCC2)=NS(=O)(=O)C12CC2`: the IC50 in series [3] is 1620 nM.

The compound `O=S1(=O)N=C(NC2CCCCC2)OC2(CCC2)C12CC2` had an IC50 in series [3] of 813 nM.

For `CCC1OC(NC2CCCCC2)=NS(=O)(=O)C12CC2` (centres undefined), the concentration for half-maximal inhibition (IC50) in series [3] came out at 2510 nM.

In series [3], `C[C@H](NC1=NS(=O)(=O)C(C)(C)C(C)(C)O1)c1ccccc1` yielded an IC50 of 286 nM. Against the preceding compound, the IC50 is about 8.8-fold lower.

As for `C[C@H](NC1=NS(=O)(=O)C(C)(C)C(C)(C)O1)c1ccccc1Cl`, in series [3], the half-inhibitory concentration (IC50) was found to be 29 nM.

On to `CC1(C)OC(N[C@@H](CCO)c2ccccc2)=NS(=O)(=O)C1(C)C`, for which the figures for the metabolised at 20 min in series [1] and in series [2] were 11% and 4%, respectively. 232 nM corresponded to half-maximal inhibition in series [3] (IC50).

On to `CC1(C)OC(N[C@@H](CCO)c2ccccc2Cl)=NS(=O)(=O)C1(C)C`, for which the metabolised at 20 min in series [1] is 52%; in series [2], 25%. The compound also gave an IC50 in series [3] of 26 nM.

Compound `CC1(C)OC(N[C@@H](CCO)c2cccc(C#N)c2)=NS(=O)(=O)C1(C)C` gave an IC50 in series [3] of 110 nM.

As for `CC1(C)OC(N[C@@H](CCO)c2ccc(F)cc2)=NS(=O)(=O)C1(C)C`, the values for the metabolised at 20 min in series [1] and in series [2] were 9% and 2%, respectively. Moreover, in series [3], inhibition was half-maximal at 199 nM (IC50).

Turning to `CC(C)(O)C[C@H](NC1=NS(=O)(=O)C(C)(C)C(C)(C)O1)c1ccccc1Cl`, the IC50 in series [3] worked out at 452 nM. This counts as sub-micromolar.

In the case of `O=S1(=O)N=C(NC2CCCCC2)O[C@H]2CCCC[C@H]21`, the Stability entry in series [4], in series [5] and in series [6] was “Stable” throughout. The compound also showed an IC50 in series [7] of 246 nM.

As to `O=S1(=O)NC(=NC2CCCCC2)O[C@@H]2CCCC[C@H]21`, half-maximal inhibition in series [7] (IC50) required 1140 nM.

The compound `O=S1(=O)NC(=NCc2ccccc2)O[C@H]2CCCC[C@H]21` gave an IC50 in series [3] of 786 nM. That is a sub-micromolar value.

For `O=S1(=O)NC(=NC23CCC(CC2)CC3)O[C@H]2CCCC[C@H]21`, the results for the metabolised at 20 min in series [1] and in series [2] were 87% and 94%, respectively. Also, the IC50 in series [3] is 275 nM.

As to `O=S1(=O)NC(=NC23CC4CC(CC(C4)C2)C3)O[C@H]2CCCC[C@H]21`, the metabolised at 20 min was determined as 98% in series [1] and 91% in series [2]. This compound also registered an IC50 in series [3] of 40 nM.

On to `O=S1(=O)NC(=NC23CC4CC(CC2C4)C3)O[C@H]2CCCC[C@H]21` (mixture of isomers), for which the metabolised at 20 min in series [1] was 65%; in series [2], 83%. For the same compound, in series [3], the IC50 was 9 nM.

In series [3], `CC(C)(NC1=NS(=O)(=O)[C@@H]2CCCC[C@@H]2O1)c1ccccc1` (mixture of isomers) registered an IC50 of 444 nM.

With `O=S1(=O)NC(=N[C@@H](CO)c2ccccc2)O[C@H]2CCCC[C@H]21` (mixture of isomers), the IC50 in series [3] was 152 nM.

With `O=S1(=O)N=C(N[C@@H](CCO)c2ccccc2)O[C@H]2CCCC[C@H]21` (mixture of isomers), the values for the metabolised at 20 min in series [1] and in series [2] were 41% and 77%, respectively. Further, half-maximal inhibition in series [3] (IC50) was put at 16 nM.

Take `NC(=O)C[C@H](NC1=NS(=O)(=O)[C@@H]2CCCC[C@@H]2O1)c1ccccc1` (mixture of isomers): the metabolised at 20 min is 35% in series [1] and 47% in series [2].

In turn, `O=S1(=O)N=C(NC23CCCC2CCC3)O[C@H]2CCCC[C@H]21` (mixture of isomers) showed an IC50 in series [3] of 47 nM.

With `O=S1(=O)N=C(NC23CCC(F)(CC2)CC3)O[C@H]2CCCC[C@H]21` (mixture of isomers), 454 nM corresponded to half-maximal inhibition in series [3] (IC50).

In the case of `O=S1(=O)N=C(NC23CCC(O)(CC2)CC3)O[C@H]2CCCC[C@H]21` (mixture of isomers), the metabolised at 20 min turned out to be 20% in series [1] and 12% in series [2]. In series [3], the IC50 was found to be 695 nM.

As to `O=S1(=O)NC(=NC23CC4CC(CC(O)(C4)C2)C3)O[C@H]2CCCC[C@H]21` (mixture of isomers), in series [3], the 50% inhibitory concentration (IC50) came out at 400 nM.

`O=S1(=O)NC(=NCC23CC4CC(CC(C4)C2)C3)O[C@H]2CCCC[C@H]21` (mixture of isomers) gave an IC50 in series [3] of 76 nM.

On to `O=S1(=O)N=C(NC2CCCCC2)O[C@H]2CCCC[C@H]21` (racemic), for which the metabolised at 20 min was 19% in series [1] and 18% in series [2].

Regarding `O=S1(=O)N=C(NC2CCCCC2)O[C@H]2CCNC[C@H]21` (racemic), the IC50 in series [8] was over 2250 nM.

Take `O=S1(=O)NC(=NC2CCCCC2)O[C@@H]2CCNC[C@H]21` (racemic): the IC50 in series [8] was over 2250 nM.

In series [8], `CN1CC[C@@H]2OC(=NC3CCCCC3)NS(=O)(=O)[C@@H]2C1` (racemic) gave an IC50 of over 2250 nM.

Take `O=S1(=O)N=C(NC2CCCCCC2)O[C@H]2CCCC[C@H]21` (racemic): the metabolised at 20 min in series [1] was determined as 54%; in series [2], 45%. For the same compound, inhibition in series [3] was half-maximal at 87 nM (IC50).

In the case of `O=S1(=O)N=C(NC2CCCCCCC2)O[C@H]2CCCC[C@H]21` (racemic), the metabolised at 20 min in series [1] was found to be 84%; in series [2] it was 79%. Also, in series [3], it took 31 nM to reach half-maximal inhibition (IC50).

Take `CC1(C)CCC(N=C2NS(=O)(=O)[C@@H]3CCCC[C@@H]3O2)CC1` (racemic): the metabolised at 20 min in series [1] and in series [2] was 55% in each case. The compound further displayed an IC50 in series [3] of 455 nM.

As for `CC1(C)CC(NC2=NS(=O)(=O)[C@@H]3CCCC[C@@H]3O2)CC(C)(C)C1` (racemic), the metabolised at 20 min in series [1] worked out at 97%; in series [2] it was 93%. Also, the IC50 in series [3] came to 57 nM.

In the case of `O=S1(=O)NC(=NCC2CCCCC2)O[C@H]2CCCC[C@H]21` (racemic), the IC50 in series [3] was 729 nM.

As usually defined, the IC50 is the concentration needed to halve the response being measured.
